The values below come from publication PMC10119279 (Scientific Reports, 2023).

For series [1], the target named is T1, CN1 enzyme (Homo sapiens, UniProt Q96KN2).
T1 construct: Fasted venous heparin plasma was collected from 6 subjects (5 males and 1 female) with a wide range in CN1 enzyme activity; from tissue; host or cells: human venous heparin plasma from 6 volunteers
T1 sequence (Q96KN2 26-507): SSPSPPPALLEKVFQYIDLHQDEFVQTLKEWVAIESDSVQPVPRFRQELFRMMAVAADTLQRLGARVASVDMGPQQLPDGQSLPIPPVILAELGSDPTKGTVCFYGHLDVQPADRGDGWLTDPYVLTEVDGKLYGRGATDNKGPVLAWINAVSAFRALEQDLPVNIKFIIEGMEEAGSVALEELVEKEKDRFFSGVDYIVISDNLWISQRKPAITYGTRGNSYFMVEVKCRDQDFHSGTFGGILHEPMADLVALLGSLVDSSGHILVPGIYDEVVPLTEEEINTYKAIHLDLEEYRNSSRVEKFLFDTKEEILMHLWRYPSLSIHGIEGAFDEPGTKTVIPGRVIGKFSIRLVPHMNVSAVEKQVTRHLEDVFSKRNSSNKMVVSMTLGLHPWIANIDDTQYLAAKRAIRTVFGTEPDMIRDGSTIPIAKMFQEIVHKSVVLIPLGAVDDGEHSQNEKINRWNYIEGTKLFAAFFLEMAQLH
The series is described as follows: In vitro degradation of carnosine, anserine and balenine added to human heparin plasma. The class given is in vitro ADME. The following applies: for half-life at 20 µM: human, heparin plasma. Here is the method:
Fasted venous heparin plasma was collected from 6 subjects (5 males and 1 female) with a wide range in CN1 enzyme activity (0.32–2.92 µmol/mL/h with a mean value of 1.62 µmol/mL/h). Subjects were asked to refrain from alcohol, meat and fish the day before the sampling. […] On different time points (Table 1), plasma was deproteinized with 1:11 sulfosalicylic acid (SSA, 35% solution) to inhibit further hydrolysis. Samples were centrifuged for 5 min at 16,000 g and supernatant was stored at − 20 °C until further UHPLC-MS/MS analysis.
Extraction of plasma and urine for UHPLC-MS/MS analysis went as follows: 150 µL of deproteinized plasma/urine (not deproteinized) was added to 215 µL of acetonitrile containing 1% formic acid, 10 µL of internal standard (IS) (carnosine-D4) and 25 µL ultrapure water or standard (calibration curve and quality control samples (QC)). Then samples were vortexed and centrifuged (15 min, 4 °C, 15,000 g). Supernatant was used for further analyses.
In the in vitro study, supernatant was diluted 40 times before injection. In the PK study, plasma samples from the 10 mg/kg condition and baseline urine samples were diluted 100 times. All other urine samples were diluted 1000 times. Dilutions were conducted with acetonitrile containing 1% formic acid.
Analyses were performed on a UHPLC-MS/MS platform consisting of an Acquity H-Class Quaternary Solvent Manager and Flow-Through-Needle Sample Manager with temperature controlled tray (8 °C) and column oven (60 °C). Chromatographic separation was achieved on an Acquity UPLC BEH amide column (2.1 mm × 100 mm, 1.7 µm) with an Acquity amide Vanguard pre-column. The system operated at a flow rate of 0.3 mL/min with solvent A (ultrapure water), solvent B (acetonitrile) and solvent C (200 mM ammonium formate with 0.04% ammonia) with the gradient shown in Table 2. The UPLC column effluent was interfaced to a Xevo TQ-XS® MS/MS system (plasma samples) and Xevo TQ-S® (urine samples), equipped with an electrospray ionization (ESI) probe operating in positive ion mode. Further MS settings included desolvation gas flow rate (15 L/h), desolvation temperature (600 °C), cone gas flow rate (800 L/h), source temperature (150 °C) and capillary voltage (0.75 kV). Transition details are depicted in Table 3. […] The detector operated in multiple reacting monitoring mode, scanning the two most intense transitions of the HCDs. Masslynx software 4.2 was used for instrument control and data extraction. Hardware and software were purchased from Waters (Milford, MA, USA).
CN1 activity was quantified by fluorometric determination of histidine following carnosine addition (based on Teufel et al., 2003). The reaction was initiated by adding carnosine to the serum (final concentration of 3.33 mM carnosine) and stopped after 10 min incubation at 37 °C by adding trichloroacetic acid (final concentration of 150 mM TCA). For controls, trichloroacetic acid was added before carnosine. After centrifugation (15 min, 16000 g), 10 µl supernatant was added to 190 µl of an OPA-NaOH mixture (4000 µl incomplete ophtaldehyde, with 0.2% 2-mercaptoethanol, and 15 ml of 4 M sodium hydroxide solution) and fluorescence was determined after 40 min (excitation: 360 nm and emission: 465 nm). All chemicals were purchased from Sigma-Aldrich (Milan, Italy).
HCD concentration in the in vitro experiment was calculated relative to the starting concentration. Elimination constant (ke) and elimination half-life were calculated based on a monophasic decay profile. Incremental area under the plasma concentration time curve (iAUC) was calculated using the trapezoidal method in the PK study. A normality check was performed using Shapiro-Wilk’s test. In case of normally distributed data, a mixed-effects model and Pearson correlation was used. Skewed data were analysed with Friedman tests and Spearman rank correlations. Values are presented as mean/median ± standard deviation/inter quartile range and 95% confidence intervals (95% CI). […]

In series [2] the test system is serum carnosinase (CN1) enzyme. The following applies: cited from earlier work.
A short description of series [3]: clinical. The settings on record: both, human, plasma and urine, oral.
Protocol: Plasma concentrations were described using a 1-compartmental model, with sequential zero- and first-order absorption and linear elimination. Cumulative urine concentrations were fitted simultaneously with plasma concentrations. Inter-occasion variability was also implemented and assumed to follow a lognormal distribution. Residual variability was described using a combined error model, consisting of an additive and a proportional component. The following covariates were tested: sex, age, weight, CN1 activity and dose. Model evaluation was done based on standard goodness-of-fit metrics (objective function value, standard errors) and plots.

Where two headings read alike, the source gives them in different places.

For orientation: half-life means how long it takes for the measured level to halve. With `Cn1cnc(CC(NC(=O)CCN)C(=O)O)c1` [balenine, β-alanyl-N(τ)-methyl-L-histidine], the “Time remaining elevated above LOQ in plasma” value in series [1] (20 µM added to heparin plasma, 37 °C, LOQ 0.05 µM) is listed as “up to 5 h”. Moreover, the half-life at 20 µM was determined as 34.9 ± 14.6 min in series [1] (both sexes, 20 µM added to human heparin plasma, 37 °C, 6 subjects, read-out: Half-life in plasma) and 15 min in series [1] (in vitro, read-out: Half-life in plasma with the highest CN1 activity). In series [1] (in vitro), the “Half-life in plasma with the lowest CN1 activity relative to highest” value was “threefold higher half-life”. For the same compound, the “Elimination rate constant relative to carnosine” value in series [1] (in vitro human heparin plasma) is reported as 3.86%. Further, the “Elimination constant ke: factor lower for balenine compared to carnosine” value in series [1] (in vitro human heparin plasma, factor ×) was determined as 25.9. Besides, the “Elimination constant ke: factor difference between balenine and anserine” value in series [1] (in vitro human heparin plasma, factor ×, not significant) is given as 14.0. Besides, for the setting “1 and 4 mg/kg doses, shorter for 10 mg/kg”, the “Duration of zero-order input (dT1)” value was 1.13 h. Under “first-order absorption, fixed to last estimated value”, the “Absorption constant (ka)” value was 3.48 h⁻¹. Further, the “Fraction excreted in urine (pu)” value (population estimate) is on record as 0.56. Further, in series [2] (ref 15-17), the “Substrate quality for the CN1 enzyme” value was “poor”. Moreover, the “Rate of hydrolysis relative to carnosine” value is given as 8% in series [2] (ref 15) and 3.81% in series [2] (ref 16). Moreover, the “Hydrolysis rate as % of carnosine's” value in series [2] (several in vitro experiments) was 5–20%. The compound also came in with a Vd in series [3] of 126 L. Also, in series [3], the clearance is 327 mL/min. Also, in series [3], the half-life is 12 min.
